According to the supplement of paper PMC10307832:

Experiments:
Assay in all cases: relative viability (nuclei count vs DMSO), 5 days (fraction); higher = more cells survive
EKVX = tested on: EKVX
How it was run: (§1)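 Lung cancer cell lines were pin-tool dosed in 1536-well plates on the day after seeding, with either a lone drug or a fixed anchor-drug dose plus five library-drug doses (not always all listed) in √10 steps. Nuclei were counted on 4× images after 5 days. Relative viability is the ratio of treated-well to vehicle-well nuclei counts, with each value a median of duplicate plates.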

LCLC-97TM1 = tested on: LCLC-97TM1
How it was run: as §1

NCI-H1437 = tested on: NCI-H1437
How it was run: as §1

NCI-H1650 = tested on: NCI-H1650
How it was run: as §1

NCI-H1666 = tested on: NCI-H1666
How it was run: as §1

NCI-H1792 = tested on: NCI-H1792
How it was run: as §1

NCI-H1915 = tested on: NCI-H1915
How it was run: as §1

NCI-H1975 = tested on: NCI-H1975
How it was run: as §1

NCI-H2342 = tested on: NCI-H2342
How it was run: as §1

NCI-H23 = tested on: NCI-H23
How it was run: as §1

NCI-H322M = tested on: NCI-H322M
How it was run: as §1

NCI-H358 = tested on: NCI-H358
How it was run: as §1

NCI-H441 = tested on: NCI-H441
How it was run: as §1

NCI-H460 = tested on: NCI-H460
How it was run: as §1

NCI-H520 = tested on: NCI-H520
How it was run: as §1

NCI-H522 = tested on: NCI-H522
How it was run: as §1

NCI-H596 = tested on: NCI-H596
How it was run: as §1

NCI-H647 = tested on: NCI-H647
How it was run: as §1

NCI-H661 = tested on: NCI-H661
How it was run: as §1

NCI-H727 = tested on: NCI-H727
How it was run: as §1

NCI-H838 = tested on: NCI-H838
How it was run: as §1

PC-3 [JPC-3] = tested on: PC-3 [JPC-3]
How it was run: as §1

SK-LU-1 = tested on: SK-LU-1
How it was run: as §1

`CN1CCN(CCOc2cc(OC3CCOCC3)c3c(Nc4c(Cl)ccc5c4OCO5)ncnc3c2)CC1` [Saracatinib] + O=C(c1cc(Cc2n[nH]c(=O)c3ccccc23)ccc1F)N1CCN(C(=O)C2CC2)CC1 [Olaparib] (partner 8 µM) showed a relative viability (EKVX; first compound 0.02 µM) of 0.704, a relative viability (EKVX; first compound 0.6325 µM) of 0.91 and a relative viability (EKVX; first compound 2 µM) of 0.38. For the same compound, the relative viability (LCLC-97TM1; first compound 0.02 µM) was 0.494, the relative viability (LCLC-97TM1; first compound 0.2 µM) was 0.291 and the relative viability (LCLC-97TM1; first compound 0.6325 µM) was 0.567. It also gave a relative viability (LCLC-97TM1; first compound 2 µM) of 0.32, a relative viability (NCI-H1437; first compound 0.02 µM) of 0.68 and a relative viability (NCI-H1437; first compound 0.2 µM) of 0.648. The relative viability (NCI-H1437; first compound 0.6325 µM) was 0.618, the relative viability (NCI-H1437; first compound 2 µM) was 0.658 and the relative viability (NCI-H1650; first compound 0.02 µM) was 0.784. It also gave a relative viability (NCI-H1650; first compound 0.2 µM) of 0.636, a relative viability (NCI-H1650; first compound 0.6325 µM) of 0.624 and a relative viability (NCI-H1650; first compound 2 µM) of 0.569. For the same compound, the relative viability (NCI-H1666; first compound 0.02 µM) was 0.722, the relative viability (NCI-H1666; first compound 0.2 µM) was 0.696 and the relative viability (NCI-H1666; first compound 0.6325 µM) was 0.974. The relative viability (NCI-H1666; first compound 2 µM) was 0.995, the relative viability (NCI-H1792; first compound 0.02 µM) was 0.537 and the relative viability (NCI-H1792; first compound 0.2 µM) was 0.352. For the same compound, the relative viability (NCI-H1792; first compound 0.6325 µM) was 0.644, the relative viability (NCI-H1792; first compound 2 µM) was 0.385 and the relative viability (NCI-H1915; first compound 0.02 µM) was 0.256. The relative viability (NCI-H1915; first compound 0.2 µM) was 0.244, the relative viability (NCI-H1915; first compound 0.6325 µM) was 0.281 and the relative viability (NCI-H1915; first compound 2 µM) was 0.225. For the same compound, the relative viability (NCI-H1975; first compound 0.02 µM) was 0.787, the relative viability (NCI-H1975; first compound 0.2 µM) was 0.793 and the relative viability (NCI-H1975; first compound 0.6325 µM) was 0.804. It also gave a relative viability (NCI-H1975; first compound 2 µM) of 0.517, a relative viability (NCI-H2342; first compound 0.02 µM) of 0.55 and a relative viability (NCI-H2342; first compound 0.2 µM) of 0.312. It also gave a relative viability (NCI-H2342; first compound 0.6325 µM) of 0.434, a relative viability (NCI-H2342; first compound 2 µM) of 0.451 and a relative viability (NCI-H23; first compound 0.02 µM) of 0.386. For the same compound, the relative viability (NCI-H23; first compound 0.6325 µM) was 0.391, the relative viability (NCI-H23; first compound 2 µM) was 0.23 and the relative viability (NCI-H322M; first compound 0.02 µM) was 0.769. It also gave a relative viability (NCI-H322M; first compound 0.2 µM) of 0.492, a relative viability (NCI-H322M; first compound 0.6325 µM) of 0.636 and a relative viability (NCI-H322M; first compound 2 µM) of 0.402. The relative viability (NCI-H358; first compound 0.02 µM) was 0.527, the relative viability (NCI-H358; first compound 0.2 µM) was 0.529 and the relative viability (NCI-H358; first compound 0.6325 µM) was 0.272. It also gave a relative viability (NCI-H358; first compound 2 µM) of 0.324, a relative viability (NCI-H441; first compound 0.02 µM) of 0.57 and a relative viability (NCI-H441; first compound 0.2 µM) of 0.536. The relative viability (NCI-H441; first compound 0.6325 µM) was 0.634, the relative viability (NCI-H441; first compound 2 µM) was 0.532 and the relative viability (NCI-H460; first compound 0.02 µM) was 0.416. The relative viability (NCI-H460; first compound 0.2 µM) was 0.285, the relative viability (NCI-H460; first compound 0.6325 µM) was 0.423 and the relative viability (NCI-H460; first compound 2 µM) was 0.409. It also gave a relative viability (NCI-H520; first compound 0.02 µM) of 0.354, a relative viability (NCI-H520; first compound 0.2 µM) of 0.327 and a relative viability (NCI-H520; first compound 0.6325 µM) of 0.289. The relative viability (NCI-H520; first compound 2 µM) was 0.243, the relative viability (NCI-H522; first compound 0.02 µM) was 0.679 and the relative viability (NCI-H522; first compound 0.2 µM) was 0.59. It also gave a relative viability (NCI-H522; first compound 0.6325 µM) of 0.572, a relative viability (NCI-H522; first compound 2 µM) of 0.534 and a relative viability (NCI-H596; first compound 0.02 µM) of 0.727. The relative viability (NCI-H596; first compound 0.2 µM) was 0.589, the relative viability (NCI-H596; first compound 0.6325 µM) was 0.684 and the relative viability (NCI-H596; first compound 2 µM) was 0.546. It also gave a relative viability (NCI-H647; first compound 0.02 µM) of 0.574, a relative viability (NCI-H647; first compound 0.2 µM) of 0.539 and a relative viability (NCI-H647; first compound 0.6325 µM) of 0.406. For the same compound, the relative viability (NCI-H647; first compound 2 µM) was 0.364, the relative viability (NCI-H661; first compound 0.02 µM) was 0.748 and the relative viability (NCI-H661; first compound 0.2 µM) was 0.625. For the same compound, the relative viability (NCI-H661; first compound 0.6325 µM) was 0.671, the relative viability (NCI-H661; first compound 2 µM) was 0.59 and the relative viability (NCI-H727; first compound 0.02 µM) was 0.687. For the same compound, the relative viability (NCI-H727; first compound 0.2 µM) was 0.51, the relative viability (NCI-H727; first compound 0.6325 µM) was 0.534 and the relative viability (NCI-H727; first compound 2 µM) was 0.578. For the same compound, the relative viability (NCI-H838; first compound 0.02 µM) was 0.776, the relative viability (NCI-H838; first compound 0.2 µM) was 0.643 and the relative viability (NCI-H838; first compound 0.6325 µM) was 0.656. For the same compound, the relative viability (NCI-H838; first compound 2 µM) was 0.505, the relative viability (PC-3 [JPC-3]; first compound 0.02 µM) was 1.19 and the relative viability (PC-3 [JPC-3]; first compound 0.2 µM) was 0.993. The relative viability (PC-3 [JPC-3]; first compound 0.6325 µM) was 0.746, the relative viability (PC-3 [JPC-3]; first compound 2 µM) was 0.55 and the relative viability (SK-LU-1; first compound 0.02 µM) was 0.416. It also gave a relative viability (SK-LU-1; first compound 0.2 µM) of 0.359, a relative viability (SK-LU-1; first compound 0.6325 µM) of 0.33 and a relative viability (SK-LU-1; first compound 2 µM) of 0.28.
